Data reported in patent US10280158B2, “Immune adjustment compound, use thereof and pharmaceutical composition comprising same” (SUZHOU CONNECT BIOPHARMACEUTICALS, LTD., priority 2013, dated 2019).
Like-named read-outs stand apart in the source and are kept apart here.

Legend:
[1] = In vivo pharmacokinetic experiment, oral administration; set-up: species or system Sprague Dawley rats; settings: for half-life: po, 3 mg/kg
Description: In this Example, the pharmacokinetic properties of compounds 1, 2, 3, 4 and 5 were evaluated via. i.v. and p.o. dosing to Sprague Dawley rats.
Experimental animals used in this Example and hereinafter were male SD rats of 7-9 weeks old, with body weight ranging from 186 to 231 g, which were purchased from Beijing Vital River Laboratory Animal Technology Co., Ltd. The animals were quarantined by veterinarian for 5 days after purchase, then animals had passed quarantine inspection were selected to be tested under SPE conditions, wherein the tested animals are assigned into 3 rats per group as follows.
Oral administration group: 2.74 mg of each of compounds 1-5 was respectively prepared into a solution of 0.3 mg/mL by using 9.113 mL 0.5% CMC-Na as a diluent. Each solution was vortexed 1-2 mins after mixed fully, and then was ultrasonically treated for 20-30 mins until a uniform suspension was obtained. The uniform suspension was used as medicine administrated to oral administration group, and the administration was conducted with a dose of 10 mL/kg body weight of each rat.
For both oral administration group and intravenous administration group, blood samples were collected at 0.0833 h (5 min), 0.25 h (15 min), 0.5 h, 1 h, 2 h, 4 h, 8 h, and 24 h after administration. After isoflurane anesthesia 0.3 mL whole blood was collected from orbital venous plexus of the animals at each time point. The animals would be euthanized after all samples were collected.
The collected blood samples were placed in EP tubes containing heparin sodium (about 10 μl, 1000 IU/mL), which were then placed in trash ice immediately, and centrifuged at 4,000 rpm and a low temperature (4° C.) for 5 minutes. The plasma was isolated rapidly and then stored at −20° C. until analysis.
The concentration of each compound in blood was measured by LC-MS/MS-001 (Q-trap-3200) with osalmide as internal standard material, as follows. 24 μL blank plasma was added into 6 μL plasma sample (5 times of dilution), and then a solution of acetonitrile containing 150 μL internal standard material (osalmide in 100 μg/mL) was added in. The mixture was shaken for 5 minutes, and then centrifuged at 4,000 rpm for 5 minutes. 2 μL of the obtained sample was implanted into LC-MS/MS for analysis. As for undiluted plasma sample, 30 μL of it was added into a solution of acetonitrile containing 150 μL internal standard material (osalmide in 100 μg/mL). The mixture was shaken for 5 minutes, and then centrifuged at 4,000 rpm for 5 minutes. 2 μL of the obtained sample was implanted into LC-MS/MS for analysis.
As for data analysis, WinNolin (V6.2) non-compartment model (NCA) was used for calculating main metabolic pharmacokinetic parameters including t1/2, AUC(0−t), AUCinf, V, Cl, MRT, etc., and Microsoft Office EXCEL was used for calculating mean values, standard deviations and coefficients of variation.

[2] = tested on: lymphocytes in the peripheral blood; assay: Effect on the number of lymphocytes in the peripheral blood; type: in vivo, Sprague-Dawley (SD) rats; settings: oral, SD rats
Excerpt: S1P1, which is expressed on the surface of lymphocytes, is essential for lymphocytes to leave the secondary lymphoid tissue and then enter into the peripheral circulation. Small molecule agonists of S1P1 can activate the receptor and result in an internalization effect on the receptor. This mechanism is a currently known mechanism by which lymphocytes are prevented from leaving the secondary lymphoid tissue, then resulting in an decreased number of lymphocytes in the peripheral circulation. In order to determine whether the compounds provided by present invention can reduce the number of lymphocytes in the peripheral blood, an in vivo effect experiment on lymphocytes is performed.
An appropriate amount of compound 2 was prepared as a suspension with sodium carboxymethylcellulose (CMC-Na) and was given orally to three Sprague-Dawley (SD) rats. Blood samples (0.5 ml) were collected at 30 min before the administration and at different time points after the administration (the collected blood samples were placed in EP tubes containing an appropriate amount of EDTA-2K solution), and analyzed on ADVIA2120 blood cell analyzer directly.

[3] = male, Sprague-Dawley, rat, plasma, oral administration (3 mg/kg), SD rats

half-life shortening relative to compound 1 ([1]; after oral administration, rats): ~50%
half-life ([1]; male, Sprague-Dawley, rat, plasma, after oral administration, rats, read-out: terminal half-life (converted)): < 5.5 h
half-life ([1]; male, Sprague-Dawley, rat, plasma, oral administration (3 mg/kg), SD rats, read-out: T½ (converted)): 5.47 ± 0.63 h
AUC(0-inf) [1, 3]: 3830 ± 184 ng·h/mL
Cmax [1, 3]: 341 ± 36.2 ng/mL
Tmax [1, 3]: 2 h
F ([1]; oral administration (3 mg/kg), SD rats): 63.4%
elimination speed after the highest concentration, compared with compounds 1 and 5 ([1]; oral administration, rats, FIGS. 1A and 1B, in words): accelerated obviously
SMILES: CC(C)Cc1ccc(-c2nc(-c3ccc(CN4CC(C(=O)O)C4)c(F)c3)no2)cc1 [Compound 2, 1-{2-fluoro-4-[5-(4-isobutylphenyl)-1,2,4-oxadiazol-3-yl]-benzyl}-3-azetidine carboxylic acid]
number of peripheral mononuclear cells and other leukocytes ([2]; in words): unobviously
reduction of lymphocytes in the peripheral blood ([2]; dose of 0.01 mg/kg): more than 50%
reduction of lymphocytes in the peripheral blood ([2]; dose of 1 mg/kg, in words): the most reduction
number of lymphocytes in the peripheral blood ([2]; three doses, 30 to 480 minutes after administration, in words): reduced the number of lymphocytes in the peripheral blood effectively
